SMILES strings stand for the structures. Activity calls are given as the source filed them. The calls are words filed in the database; no cut-off is given here.

The term IC50 denotes the point on the concentration scale where inhibition reaches its midpoint. For orientation: inhibition means the drop in the measured response relative to a control, in per cent.

Data set [1] addresses T1, Peroxisome proliferator-activated receptor gamma (Homo sapiens) (UniProt P37231).
T1 sequence (whole entry): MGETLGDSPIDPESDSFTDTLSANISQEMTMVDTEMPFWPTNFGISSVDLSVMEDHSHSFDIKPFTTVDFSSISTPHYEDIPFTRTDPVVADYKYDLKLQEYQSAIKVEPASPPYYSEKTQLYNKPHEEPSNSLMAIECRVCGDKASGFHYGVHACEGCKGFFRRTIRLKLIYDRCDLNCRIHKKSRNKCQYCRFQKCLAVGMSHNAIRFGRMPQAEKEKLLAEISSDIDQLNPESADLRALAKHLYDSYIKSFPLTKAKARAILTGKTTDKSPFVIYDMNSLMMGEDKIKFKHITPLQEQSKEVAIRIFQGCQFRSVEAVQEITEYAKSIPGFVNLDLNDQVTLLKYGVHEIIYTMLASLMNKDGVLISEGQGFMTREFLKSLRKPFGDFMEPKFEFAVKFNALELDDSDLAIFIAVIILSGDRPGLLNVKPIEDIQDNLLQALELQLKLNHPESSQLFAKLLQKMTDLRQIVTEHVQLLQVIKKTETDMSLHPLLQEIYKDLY
Description: Agonist activity at PPARgamma (unknown origin) at 1 uM relative to telmisartan.

Data set [2] concerns the target T2, Type-1 angiotensin II receptor (Homo sapiens, UniProt P30556).
T2 sequence (P30556 whole entry): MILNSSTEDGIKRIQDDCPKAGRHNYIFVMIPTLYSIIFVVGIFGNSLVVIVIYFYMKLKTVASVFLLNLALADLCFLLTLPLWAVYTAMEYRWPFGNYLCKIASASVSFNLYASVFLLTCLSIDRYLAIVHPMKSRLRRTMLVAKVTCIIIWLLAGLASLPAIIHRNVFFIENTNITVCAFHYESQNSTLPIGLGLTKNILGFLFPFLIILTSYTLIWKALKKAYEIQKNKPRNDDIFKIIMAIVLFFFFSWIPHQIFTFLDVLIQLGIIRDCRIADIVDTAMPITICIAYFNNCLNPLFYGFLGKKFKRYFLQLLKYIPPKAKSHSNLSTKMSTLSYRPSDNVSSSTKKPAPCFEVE
Description: Antagonist activity at type-1 angiotensin 2 receptor (unknown origin) by calcium mobilizing assay. In kind it is functional.

In data set [3] the target is T3, Type-1 angiotensin II receptor (Homo sapiens) (UniProt P30556).
T3 sequence (whole entry): T2 sequence (P30556 whole entry)
Description: Antagonist activity at type-1 angiotensin 2 receptor (unknown origin) at 20 nM by calcium mobilizing assay relative to fimasartan. In kind it is functional.

Data set [4] concerns Mus musculus. The data set is described as follows: Toxicity in db/db mouse model assessed as suppression of weight gain at 20 mg/kg, po qd measured after 11 days. Type of data set: organism-based. The following applies: in vivo, 264 h.
The test system of data set [5] is Mus musculus. The data set is described as follows: Antidiabetic activity in db/db mouse model assessed as suppression of blood glucose increase at 20 mg/kg qd, po administered for 13 days. In kind it is functional, organism-based.

In turn, `CCCCc1nc(C)c(CC(=S)N2CCCC2)c(=O)n1Cc1ccc(-c2ccccc2-c2noc(=O)[nH]2)cc1` had an Activity in data set [1] of 105%. In addition, in data set [2], the IC50 amounted to 0.7 nM.

Compound `CCCCc1nc(C)c(CC(=S)N2CCOCC2)c(=O)n1Cc1ccc(-c2ccccc2-c2noc(=O)[nH]2)cc1` had an Activity in data set [1] of 83%. Also, the IC50 in data set [2] stood at 5.6 nM.

`CCCCc1nc(C)c(CC(=S)N2CCCCC2)c(=O)n1Cc1ccc(-c2ccccc2-c2noc(=O)[nH]2)cc1`: the Activity in data set [1] came to 116%. The IC50 in data set [2] was 38 nM.

With `Cc1nc(CC(C)C)n(Cc2ccc(-c3ccccc3-c3noc(=O)[nH]3)cc2)c(=O)c1CC(=S)N(C)C`, the Activity in data set [1] is 70%. The inhibition in data set [3] amounted to 0%.

In data set [1], `CCCCc1nc(C)c(CC(=S)N(C)C(C)C)c(=O)n1Cc1ccc(-c2ccccc2-c2noc(=O)[nH]2)cc1` registered an Activity of 106%. The inhibition in data set [3] was determined as 107%.

Take `CCCCc1nc(C)c(CC(=S)N(CC)CC)c(=O)n1Cc1ccc(-c2ccccc2-c2noc(=O)[nH]2)cc1`: the Activity in data set [1] worked out at 61%. The IC50 in data set [2] worked out at 2 nM.

As to `CCc1ccc(CCOc2ccc(CC3SC(=O)NC3=O)cc2)nc1` (stereo not given) [PIOGLITAZONE], the Activity entry in the data set with Mus musculus [4] was “Non-Toxic”. Moreover, the result in the data set on Mus musculus [5] was Active.

The compound `CCCCc1nc(C2CC2)c(CC(=S)N2CCCC2)c(=O)n1Cc1ccc(-c2ccccc2-c2noc(=O)[nH]2)cc1` yielded an Activity in data set [1] of 79%. Also, in data set [3], the inhibition was 63%.

Take `CCCCc1nc(C)c(CC(=S)N2CCCC2C)c(=O)n1Cc1ccc(-c2ccccc2-c2noc(=O)[nH]2)cc1` (stereo not given): in data set [1], the Activity was found to be 107%. Further, in data set [2], the IC50 came to 1.2 nM.

Compound `CCCCc1nc(C)c(CC(=S)N(C)C)c(=O)n1Cc1ccc(-c2ccccc2-c2noc(=O)[nH]2)cc1` returned an Activity in data set [1] of 120%. In addition, the half-inhibitory concentration (IC50) in data set [2] is 1.6 nM.

Values taken from ChEMBL document CHEMBL4265900, “Discovery of the bifunctional modulator of angiotensin II type 1 receptor (AT1R) and PPARγ derived from the AT1R antagonist, Fimasartan” (Bioorg Med Chem Lett, 2018).
